The values that follow come from patent US6916843B1, “Anti-inflammatory actions of cytochrome P450 expoxygenase-derived eicosanoids” (The United States of America as represented by the …, priority 1999, dated 2005).

The test system of series [1] is VCAM-1 expression. Kind of series: Cell-surface enzyme immunoassay of cytokine-induced VCAM-1 expression in endothelial cells. In kind it is cell-based, human. The conditions noted are these: 100 nM, 24 hours.
Series [2] has as its system IκB-α. The series is described as follows: Fate of IκB-α after TNF-α stimulation of human endothelial cells. It is filed as cell-based. The conditions noted are these: TNF-α 10 ng/ml, 15 min; EET 100 nM. From the text: Co-treatment with [11,12]-EET prevented the nuclear accumulation of RelA. Since the nuclear translocation of RelA requires the degradation of its endogenous cytoplasmic inhibitor, inhibitor kappa B (IκB-α), we followed the fate of IκB-α after TNF-α stimulation in the presence or absence of [11,12]-EET. Stimulation of human endothelial cells with TNF-α caused a rapid and almost complete disappearance of IκB-α which was prevented by co-treatment with [11,12]-EET, but not [14,15]-EET.
A set of gel shift assays was performed. […] In some assays, [11,12]-EET (100 nM) was also added directly to the IKK assay (in vitro). As a control for nonspecific phosphorylation, the assay was performed without the addition of immunoprecipitated IKK (no enzyme) or in the presence of a IκB-α mutant (ΔSer 32, Ser 36→Thr) as substrate. The assay was performed three times with similar results.
Specificity of IKB was determined by the complete absence of phosphorylation when the mutated IκB-α substrate, GST-1κB-α (Δ32,36: S→T) which cannot be phosphorylated at serine residues 32 and 36, was substituted for wild-type GST-IκB-α.

Series [3] concerns the target T1, CYP2J2 (Homo sapiens, UniProt P51589).
T1 construct: The CYP2J2 cDNA (1.9 kb) or GFP cDNA (0.75 kb) were subcloned into the plasmid pcDNA3.1; expressed in transfected cells; host or cells: bovine aortic endothelial cells (BAECs), transient transfection with pcDNA3.1/CYP2J2
T1 sequence (P51589 1-502): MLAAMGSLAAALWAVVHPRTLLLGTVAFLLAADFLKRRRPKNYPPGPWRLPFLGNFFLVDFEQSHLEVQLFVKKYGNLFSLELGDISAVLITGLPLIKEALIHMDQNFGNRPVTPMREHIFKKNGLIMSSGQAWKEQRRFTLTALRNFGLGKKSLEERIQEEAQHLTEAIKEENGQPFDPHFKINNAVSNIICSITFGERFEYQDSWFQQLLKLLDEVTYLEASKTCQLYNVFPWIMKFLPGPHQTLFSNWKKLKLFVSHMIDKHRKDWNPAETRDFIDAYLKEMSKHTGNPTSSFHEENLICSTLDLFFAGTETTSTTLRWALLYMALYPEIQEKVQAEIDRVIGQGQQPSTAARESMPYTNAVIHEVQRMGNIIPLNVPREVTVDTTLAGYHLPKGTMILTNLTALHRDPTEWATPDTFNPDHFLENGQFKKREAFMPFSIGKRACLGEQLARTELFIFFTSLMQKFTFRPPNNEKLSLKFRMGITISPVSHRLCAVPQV
Kind of series: Arachidonic acid epoxygenase metabolite formation in CYP2J2-transfected bovine aortic endothelial cells (HPLC). How it is done:
To study the formation of EETs by CYP2J2 in endothelial cells, we measured EET synthesis from bovine endothelial cells transfected with CYP2J2 cDNA. Early passage bovine aortic endothelial cells were grown to 60-70% confluence and transfected with either pcDNA3.1 or pcDNA3.1/CYP2J2 using Fugene™ 6 reagent (Boehringer Mannheim Corp.) according to the manufacturer's instructions. Using this method, the transfection efficiency was 10-20%. Forty-eight hours post-transfection, cells were washed twice with phosphate-buffered saline and incubated with freshly purified [^3H]arachidonic acid (185 Ci/mmol, 4-5 μCi/175 mm^2 flask) and unlabeled arachidonic acid (10 μM) was added before addition of arachidonic acid. At various time points, the media and cells were removed and extracted with diethyl ether. The combined organic phases were dried under a nitrogen stream, resolved by reverse-phase high performance liquid chromatography (HPLC) and quantified by liquid scintillation as described by Wu et al., 271 J. Biol. Chem. 3460 (1996). […]
These control GFP-transfected cells metabolized radiolabeled arachidonic acid to epoxygenase metabolites (EETs and DHETs) at a rate of ˜8 pmol/min/10^7 cells (FIG. 6). Endothelial cell arachidonic acid metabolism was determined as follows: Forty-eight hours after transfection with either pcDNA3.1/GFP or pcDNA3.1/CYP2J2, BAECs were incubated with freshly purified [5, 6, 8, 9, 11, 12, 14, 15-^3H]arachidonic acid (185 Ci/mmol, 4-5 μCi/175-mm^2 flask) in serurm-free culture medium at 37° C. for 30-120 min. […] The BAECs and culture medium were then collected and the reaction products extracted into ethyl ether, dried under a nitrogen stream, analyzed by reverse-phase HPLC, and quantified by on-line liquid scintillation using a Radiomatic Flo-One β detector (Radiomatic Instruments, Tampa, Fla.) as described (Wu et al., 271 J. Biol. Chem. 12551 (1996), Node et al., 285 Science 1276-1279 (1999)). […]

On to `CCCCC/C=C\C[C@H]1O[C@H]1C/C=C\C/C=C\CCCC(=O)O` [[11,12]-EET], for which the “inhibition of IL-1α-induced VCAM-1 expression” value in series [1] (IL-1α) is recorded as “inhibited”. Further, the “inhibition of LPS-induced VCAM-1 expression” value in series [1] (LPS 10 ng/ml) is recorded as “inhibited”. The “effect on TNF-α-induced disappearance/degradation of IκB-α” value in series [2] is given as “prevented”.

With “CYP2J2: CYP2J2 cDNA (1.9 kb) subcloned into plasmid pcDNA3.1, transfected into endothelial cells”, the “rate of formation of epoxygenase metabolites (EETs and DHETs)” value in series [3] was determined as 17.8±2.3 pmol/minute/10^7 cells.
